Experimental data from US20240360116A1, “BICYCLIC DERIVATIVES” (ELANCO TIERGESUNDHEIT AG, priority 2020, published 2024).
Values joined by “and” are separate entries in the source; they are usually repeats but may differ in a detail not shown here. Equal entries are not always repeated.

Tests used:
[1] = target: D. immitis Slo-1 (Dirofilaria immitis, UniProt I0DFK5); assay: In Vitro Assay 2: D. immitis Slo-1 recombinant CHO cell line, membrane potential; type: cell-based; settings: EC50, CHO cells expressing D. immitis Slo-1, voltage sensitive dye, FLIPR Tetra, 70 mM KCl
[2] = tested on: Dirofilaria immitis third-stage larvae; assay: In Vitro Assay 4: Dirofilaria immitis (DIROIM L4); settings: 72 h, read-out: EC50 (reduction of motility)
[3] = tested on: Adult Nippostrongylus brasiliensis; assay: In Vitro Assay 5: Nippostrongylus brasiliensis (NIPOBR), acetylcholine esterase readout; settings: adult worms, tested at 10, 1 and 0.1 ppm, vs negative control
Protocol: Adult Nippostrongylus brasiliensis were washed with saline buffer containing 100 U/ml penicillin, 0.1 mg/ml streptomycin and 2.5 μg/ml amphotericin B. Test compounds were dissolved in DMSO and worms were incubated in medium in a final concentration of 10 μg/ml (10 ppm), 1 μg/ml (1 ppm) and 0.1 μg/ml (0.1 ppm) respectively. An aliquot of the medium was used to determine the acetylcholine esterase activity in comparison to a negative control. The principle of measuring acetylcholine esterase as readout for anthelmintic activity was described in Rapson et al (1986) and Rapson et al (1987).
Based on the evaluation of a wide concentration range, concentration-response curves as well as EC50-values were calculated.

[4] = tested on: Dirofilaria immitis microfilariae; assay: In Vitro Assay 3: Dirofilaria immitis microfilariae (DIROIM L1); settings: 72 h, read-out: EC50 (reduction of motility)

Chain of D. immitis Slo-1 (I0DFK5 1-1119): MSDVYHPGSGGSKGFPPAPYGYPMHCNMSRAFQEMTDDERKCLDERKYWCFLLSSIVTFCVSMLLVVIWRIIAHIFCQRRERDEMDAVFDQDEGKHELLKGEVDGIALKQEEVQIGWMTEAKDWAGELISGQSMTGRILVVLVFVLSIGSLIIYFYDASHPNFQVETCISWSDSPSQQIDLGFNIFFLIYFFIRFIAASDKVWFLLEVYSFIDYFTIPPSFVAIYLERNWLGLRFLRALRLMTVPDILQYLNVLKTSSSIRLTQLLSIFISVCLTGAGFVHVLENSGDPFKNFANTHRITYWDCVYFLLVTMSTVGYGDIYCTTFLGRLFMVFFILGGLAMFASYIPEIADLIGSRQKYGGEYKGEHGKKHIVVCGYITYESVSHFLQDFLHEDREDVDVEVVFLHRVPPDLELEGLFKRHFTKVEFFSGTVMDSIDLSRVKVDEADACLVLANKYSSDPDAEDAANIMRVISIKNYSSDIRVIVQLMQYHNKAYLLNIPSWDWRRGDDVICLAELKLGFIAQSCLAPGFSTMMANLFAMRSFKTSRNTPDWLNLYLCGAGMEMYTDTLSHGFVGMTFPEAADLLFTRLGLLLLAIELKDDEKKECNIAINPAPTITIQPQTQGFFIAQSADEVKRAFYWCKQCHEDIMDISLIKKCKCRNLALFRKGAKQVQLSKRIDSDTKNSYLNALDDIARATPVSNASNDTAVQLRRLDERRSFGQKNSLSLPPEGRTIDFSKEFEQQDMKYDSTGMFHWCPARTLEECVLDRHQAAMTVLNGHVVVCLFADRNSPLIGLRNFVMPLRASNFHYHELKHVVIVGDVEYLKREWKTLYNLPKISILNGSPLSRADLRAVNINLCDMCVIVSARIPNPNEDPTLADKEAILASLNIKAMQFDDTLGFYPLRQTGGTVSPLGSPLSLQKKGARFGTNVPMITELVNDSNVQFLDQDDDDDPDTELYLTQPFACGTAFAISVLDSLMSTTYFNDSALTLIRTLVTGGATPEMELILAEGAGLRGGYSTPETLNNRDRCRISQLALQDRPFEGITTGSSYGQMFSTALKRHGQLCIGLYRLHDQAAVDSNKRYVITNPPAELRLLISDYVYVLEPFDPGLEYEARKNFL

`O=C(NN1CCOc2ccccc21)c1cnc2c(-c3cc(F)cc(F)c3F)c(F)ccc2c1N1C[C@@H](F)[C@@H](F)C1` (single isomer, unassigned) [Example 5.89, 4-(3,4-difluoropyrrolidin-1-yl)-N-(2,3-dihydro-1,4-benzoxazin-4-yl)-7-fluoro-8-(2,3,5-trifluorophenyl)quinoline-3-carboxamide] showed an EC50 [1] of under 100 nM, an EC50 [2] of under 0.1 µg/mL and an EC50 [3] of under 0.1 µg/mL.

For `N#Cc1c(Cl)cc(C(F)(F)F)cc1-c1cccc2c(N3CCOCC3)c(C(=O)NN3CCOc4ccccc43)cnc12` [Example 5.76, 8-[3-chloro-2-cyano-5-(trifluoromethyl)phenyl]-N-(2,3-dihydro-1,4-benzoxazin-4-yl)-4-morpholino-quinoline-3-carboxamide], the EC50 [1] was 100 to 1000 nM.

With `Nc1c(Cl)cc(C(F)(F)F)cc1-c1cccc2c(N3CCOCC3)c(C(=O)NN3CCOc4ccccc43)cnc12` [Example 5.77, 8-[2-amino-3-chloro-5-(trifluoromethyl)phenyl]-N-(2,3-dihydro-1,4-benzoxazin-4-yl)-4-morpholino-quinoline-3-carboxamide] the EC50 [1] was < 100 nM and 100 to 1000 nM.

`O=C(NN1CCOc2ccccc21)c1cnc2c(-c3cc(F)cc(F)c3F)c(F)ccc2c1N1CC(F)C1` [Example 5.78, N-(2,3-dihydro-1,4-benzoxazin-4-yl)-7-fluoro-4-(3-fluoroazetidin-1-yl)-8-(2,3,5-trifluorophenyl)quinoline-3-carboxamide] showed an EC50 [1] of under 100 nM.

`O=C(NN1CCOc2ccccc21)c1cnc2c(-c3cc(Cl)cc(F)c3F)c(F)ccc2c1N1CC(F)C1` [Example 5.79, 8-(5-chloro-2,3-difluoro-phenyl)-N-(2,3-dihydro-1,4-benzoxazin-4-yl)-7-fluoro-4-(3-fluoroazetidin-1-yl)quinoline-3-carboxamide] gave an EC50 [1] of 100 to 1000 nM and an EC50 [3] of under 0.1 µg/mL.

For `O=C(NN1CCOc2ccccc21)c1cnc2c(-c3cc(C(F)(F)F)cc(F)c3Br)cccc2c1N1CCOCC1` [Example 5.80, 8-[2-bromo-3-fluoro-5-(trifluoromethyl)phenyl]-N-(2,3-dihydro-1,4-benzoxazin-4-yl)-4-morpholino-quinoline-3-carboxamide], the EC50 [1] was under 100 nM and the EC50 [3] was under 0.1 µg/mL.

For `N#Cc1c(F)cc(C(F)(F)F)cc1-c1cccc2c(N3CCOCC3)c(C(=O)NN3CCOc4ccccc43)cnc12` [Example 5.81, 8-[2-cyano-3-fluoro-5-(trifluoromethyl)phenyl]-N-(2,3-dihydro-1,4-benzoxazin-4-yl)-4-morpholino-quinoline-3-carboxamide], the EC50 [1] was 100 to 1000 nM.

With `O=C1CC(c2c(C(=O)NN3CCOc4ccccc43)cnc3c(-c4cc(F)cc(F)c4F)c(F)ccc23)C1` [Example 5.82, N-(2,3-dihydro-1,4-benzoxazin-4-yl)-7-fluoro-4-(3-oxocyclobutyl)-8-(2,3,5-trifluorophenyl)quinoline-3-carboxamide] the EC50 [1] was under 100 nM, the EC50 [4] was under 0.1 µg/mL and the EC50 [2] was under 0.1 µg/mL. The EC50 [3] was under 0.1 µg/mL.

In the case of `O=C(NN1CCOc2ccc(F)cc21)c1cnc2c(-c3cc(F)cc(F)c3F)c(F)ccc2c1N1CCOCC1` [Example 5.83, 7-fluoro-N-(6-fluoro-2,3-dihydro-1,4-benzoxazin-4-yl)-4-morpholino-8-(2,3,5-trifluorophenyl)quinoline-3-carboxamide], the EC50 [1] is reported as under 100 nM, the EC50 [4] is reported as under 0.1 µg/mL and the EC50 [2] is reported as under 0.1 µg/mL. It also gave an EC50 [3] of under 0.1 µg/mL.

Molecule `COC1CN(c2c(C(=O)NN3CCOc4ccccc43)cnc3c(-c4cc(F)cc(F)c4F)c(F)ccc23)C1` [Example 5.84, N-(2,3-dihydro-1,4-benzoxazin-4-yl)-7-fluoro-4-(3-methoxyazetidin-1-yl)-8-(2,3,5-trifluorophenyl)quinoline-3-carboxamide] has an EC50 [1] of 100 to 1000 nM.

`O=C(NN1CCOc2ccccc21)c1cnc2c(-c3cc(F)cc(F)c3F)c(F)ccc2c1C1CSC1` [Example 5.85, N-(2,3-dihydro-1,4-benzoxazin-4-yl)-7-fluoro-4-(thietan-3-yl)-8-(2,3,5-trifluorophenyl)quinoline-3-carboxamide] gave an EC50 [1] of under 100 nM and an EC50 [3] of under 0.1 µg/mL.

In the case of `O=C(NN1CCOc2ccccc21)c1cnc2c(-c3cc(F)cc(F)c3F)c(F)ccc2c1C1CS(=O)(=O)C1` [Example 5.86, N-(2,3-dihydro-1,4-benzoxazin-4-yl)-4-(1,1-dioxothietan-3-yl)-7-fluoro-8-(2,3,5-trifluorophenyl)quinoline-3-carboxamide], the EC50 [1] is reported as 100 to 1000 nM.

`CN(c1c(C(=O)NN2CCOc3ccccc32)cnc2c(-c3cc(F)cc(F)c3F)c(F)ccc12)C1CC(F)C1` (stereo not shown) [Example 5.87, N-(2,3-dihydro-1,4-benzoxazin-4-yl)-7-fluoro-4-[(3-fluorocyclobutyl)-methyl-amino]-8-(2,3,5-trifluorophenyl)quinoline-3-carboxamide] showed an EC50 [3] of under 0.1 µg/mL.

For `O=C(NN1CCOc2ccccc21)c1cnc2c(-c3cc(F)cc(F)c3F)c(F)ccc2c1N1C[C@@H](F)[C@H](F)C1` [Example 5.92, 4-[(3R,4R)-3,4-difluoropyrrolidin-1-yl]-N-(2,3-dihydro-1,4-benzoxazin-4-yl)-7-fluoro-8-(2,3,5-trifluorophenyl)quinoline-3-carboxamide], the EC50 [2] was under 0.1 µg/mL and the EC50 [3] was under 0.1 µg/mL.

Molecule `O=C(NN1CCOc2ccccc21)c1cnc2c(-c3cc(C(F)(F)F)cc(F)c3F)c(F)ccc2c1N1CCOCC1` [Example 5.94, 8-(2,3-difluoro-5-(trifluoromethyl)phenyl)-N-(2,3-dihydro-4H-benzo[b][1,4]oxazin-4-yl)-7-fluoro-4-morpholinoquinoline-3-carboxamide] has an EC50 [1] of under 100 nM.

Work on `O=C(NN1CCOc2ccccc21)c1cnc2c(-c3cc(F)cc(F)c3F)c(F)ccc2c1C1CC(F)(F)C1` [Example 5.95, 4-(3,3-difluorocyclobutyl)-N-(2,3-dihydro-4H-benzo[b][1,4]oxazin-4-yl)-7-fluoro-8-(2,3,5-trifluorophenyl)quinoline-3-carboxamide] yielded an EC50 [1] of under 100 nM.

For `O=C(NN1CCOc2ccccc21)c1cnc2c(-c3cc(C(F)(F)F)cc(F)c3F)c(F)ccc2c1N1CC(F)C1` [Example 5.96, 8-(2,3-difluoro-5-(trifluoromethyl)phenyl)-N-(2,3-dihydro-4H-benzo[b][1,4]oxazin-4-yl)-7-fluoro-4-(3-fluoroazetidin-1-yl)quinoline-3-carboxamide], the EC50 [1] was 100 to 1000 nM.

`O=C(NN1CCOc2ccc(F)cc21)c1cnc2c(-c3cc(F)cc(F)c3F)c(F)ccc2c1C1CCOC1` (stereo not shown) [Example 5.97, 7-fluoro-N-(6-fluoro-2,3-dihydro-4H-benzo[b][1,4]oxazin-4-yl)-4-(tetrahydrofuran-3-yl)-8-(2,3,5-trifluorophenyl)quinoline-3-carboxamide] was tested, and the EC50 [1] was under 100 nM.

`O=C(NN1CCOc2ccc(F)cc21)c1cnc2c(-c3cc(F)cc(F)c3F)c(F)ccc2c1N1CC(F)C1` [Example 5.98, 7-fluoro-N-(6-fluoro-2,3-dihydro-4H-benzo[b][1,4]oxazin-4-yl)-4-(3-fluoroazetidin-1-yl)-8-(2,3,5-trifluorophenyl)quinoline-3-carboxamide] showed an EC50 [1] of 100 to 1000 nM.

`C=C(C)c1c(C(=O)NN2CCOc3ccc(F)cc32)cnc2c(-c3cc(F)cc(F)c3F)c(F)ccc12` [Example 5.99, 7-fluoro-N-(6-fluoro-2,3-dihydro-4H-benzo[b][1,4]oxazin-4-yl)-4-(prop-1-en-2-yl)-8-(2,3,5-trifluorophenyl)quinoline-3-carboxamide] showed an EC50 [1] of 100 to 1000 nM.

`O=C(NN1CCOc2ccccc21)c1cnc2c(-c3cc(F)cc(F)c3F)c(F)ccc2c1C1CC(F)C1` (stereo not shown) [Example 5.101, N-(2,3-dihydro-4H-benzo[b][1,4]oxazin-4-yl)-7-fluoro-4-(3-fluorocyclobutyl)-8-(2,3,5-trifluorophenyl)quinoline-3-carboxamide] showed an EC50 [1] of under 100 nM.

In the case of `O=C(NN1CCOc2ccccc21)c1cnc2c(-c3cc(F)cc(S(F)(F)(F)(F)F)c3)c(F)ccc2c1C1CCOC1` (stereo not shown) [Example 5.102, N-(2,3-dihydro-4H-benzo[b][1,4]oxazin-4-yl)-7-fluoro-8-(3-fluoro-5-(pentafluoro-sulfanyl)phenyl)-4-(tetrahydrofuran-3-yl)quinoline-3-carboxamide], the EC50 [1] is reported as under 100 nM.

`O=C(NN1CCOc2ccccc21)c1cnc2c(-c3cc(F)cc(F)c3F)c(F)c(F)cc2c1N1CCOCC1` [Example 5.105, N-(2,3-dihydro-4H-benzo[b][1,4]oxazin-4-yl)-6,7-difluoro-4-morpholino-8-(2,3,5-trifluorophenyl)quinoline-3-carboxamide] was tested, and the EC50 [1] was under 100 nM.

`O=C(NN1CCOc2ccc(F)cc21)c1cnc2c(-c3cc(F)cc(F)c3F)c(F)ccc2c1C1CS(=O)(=O)C1` [Example 5.106, 4-(1,1-dioxidothietan-3-yl)-7-fluoro-N-(6-fluoro-2,3-dihydro-4H-benzo[b][1,4]oxazin-4-yl)-8-(2,3,5-trifluorophenyl)quinoline-3-carboxamide] was tested, and the EC50 [1] was 100 to 1000 nM and the EC50 [3] was under 0.1 µg/mL.

For `O=C(NN1CCOc2ccccc21)c1cnc2c(-c3cc(C(F)(F)F)cc(F)c3F)c(F)ccc2c1C1CS(=O)(=O)C1` [Example 5.107, 8-(2,3-difluoro-5-(trifluoromethyl)phenyl)-N-(2,3-dihydro-4H-benzo[b][1,4]oxazin-4-yl)-4-(1,1-dioxidothietan-3-yl)-7-fluoroquinoline-3-carboxamide], the EC50 [1] was 100 to 1000 nM and the EC50 [3] was under 0.1 µg/mL.

`O=C(NN1C(=O)COc2ccccc21)c1cnc2c(-c3cc(F)cc(F)c3F)cccc2c1N1CCOCC1` [Example 5.109, 4-morpholino-N-(3-oxo-2,3-dihydro-4H-benzo[b][1,4]oxazin-4-yl)-8-(2,3,5-trifluorophenyl)quinoline-3-carboxamide] gave an EC50 [1] of 100 to 1000 nM.
